# Tested on: Iso-induced ANF-Luc transcriptional activation
# Assay: ANF-Luc transcriptional activation (Firefly luciferase assay) in rat neonatal cardiomyocytes
# Assay type: cell-based
# Conditions: Iso 10 μM, 8 h; FIG. 4A
# Procedure: ANF and NFAT promoters were fused to the Firefly luciferase gene (ANF-Luc) (NFAT-Luc) to detect ANF and NFAT by Firefly Luciferase assay (see Materiel and Methods).
# Rat neonatal cardiomyocytes were cotransfected with ANF-Luc and Epac1 or empty vector pcDNA3 as control. One day after transfection, cells were pretreated or not with CE3F4 (20 μM) for 30 min and stimulated or not with Iso (10 μM) for 8 h. Cells were then assayed for Luciferase activity. B) Iso-induced NFAT-Luc Transcriptional Activation is Blocked by CE3F4: Neonatal cardiomyocytes were transfected with NFAT-Luc. One day later cells were pretreated or not with CE3F4 (20 μM) for 30 min and stimulated or not with Iso (10 μM) for 8 h. The day after, cells were assayed for Luciferase activity.
# Results were normalized to control for each experiment, and were expressed as means±S.E.M of at 4 (FIG. 4A) or 5 (FIG. 4B) independent experiments performed in triplicates.
# The rat ANF promoter fused to the Firefly luciferase reporter gene (ANF-Luc) by Dr K. Knowlton, Epac and Rap1 plasmid construct (Epac1^WT) by Drs J. L. Bos and J. de Gunzburg, respectively. The Firefly luciferase reporter plasmid driven by four NFAT consensus binding sites (NFAT-Luc) was purchased from Stratagene. […]
# Cells were lysed, and luminescence was detected using the Luciferase Assay System (Promega) according to the manufacturer's instructions with Tecan Infinite.
smiles,measurement,value
"CC(C)NCC(O)c1ccc(O)c(O)c1 (stereo not shown) [Iso, Isoprenaline, reference compound]",Effect of agonist on ANF (ANF-Luc),increased ANF

# Source: patent US10093627B2, “Tetrahydroquinoline derivatives and their use as Epac inhibitors” (Institut National de la Sante et de la Recherche Medicale …, priority 2012, dated 2018)
